We go through 5 compounds from patent publication US8865776B2, “Use of low molecular weight amino alcohols in ophthalmic compositions” (Alcon Research, Ltd., priority 1996, dated 2014).

The structures appear in SMILES notation.

For the assay, the system named is S. marcescens. Briefly: Anti-microbial activity, log reduction of survivors after inoculation. Conditions: saline solution with 1.2% amino alcohol, 0.3% sodium chloride, 0.05% disodium edetate, pH 7.4. Format: cell-based. On the procedure: The antibacterial activity of the above-described saline solutions against S. marcescens was evaluated. The formulations were evaluated by inoculating 20 ml of each solution with 0.1 ml of a microbial suspension. The final concentration was 10^6 colony forming units (“CPUs”) per ml. At each time point, pour plates of SCDA were prepared containing diluted aliquots of the various test samples. The bacteria and yeast plates were incubated at 30° to 35° C. for 2 to 3 days. The mold plates were incubated at 20° to 25° C. for five days. Following the colony incubation period, the number of CFUs were counted and the log reduction of the CFUs relative to the starting amount was calculated. The anti-microbial activity of the formulations against S. marcescens and P. aeruginosa was evaluated.

As for `CCC(N)(CO)CO` [AEPD, 2-amino-2-ethyl-1,3-propanediol], the “Log Reduction of Survivors” value reads like this: (6 hours) 0.0 log; (24 hours) 0.7 log.
For the compound `CN(C)C(C)(C)CO` [DMAMP, 2-dimethylamino-methyl-1-propanol], the “Log Reduction of Survivors” value runs as follows: (6 hours) 0.0 log; (24 hours) 0.7 log.
With `CC(C)(N)CO` [AMP, 2-amino-2-methyl-1-propanol], the “Log Reduction of Survivors” value is listed as 0.1 log (6 hours) and 0.5 log (24 hours).
For `CC(N)(CO)CO` [AMPD, 2-amino-2-methyl-1,3-propanediol], the “Log Reduction of Survivors” value reads like this: (6 hours) 0.0 log; (24 hours) 0.0 log.
On to `OCCN1CCN(CCO)CC1` [BHP, 1,4-Bis(2-hydroxyethyl)-piperazine, reference compound], for which the “Log Reduction of Survivors” value reads like this: (6 hours) 0.1 log; (24 hours) 0.1 log.
